Read-outs that look alike come from different tables or passages of the source.
Columns and labels:
production of IL8 [1] = experiment: Production of interleukin 8 induced in keratinocytes by PMA and calcium ionophore A23187 (ELISA); format: cell-based; conditions: for Inhibitory activity % of molecules evaluated on the production of IL8 / inhibition at 3 µg/mL: 3 μg/mL, keratinocytes, 60 min pre-incubation, PMA 1 μM + A23187 0.1 μM, 6 hours, percentage of activity/stimulated control; for inhibition at 3 µg/mL: Keratinocyte, read-out: Inhibitory activity % of molecules evaluated on the production of IL8; for anti-inflammatory potentialities (IL8 production), in words: summary of Table 2 data
Protocol: In this study conducted on 96-well plates, we evaluated the activity of amino-alkene acids, on the production of interleukin 8 induced at the keratinocyte by the phorbol ester PMA and the calcium ionophore A23187.
(§1) The suspension of keratinocytes in supplemented KSFM is distributed into plates of 96 wells (3.10^4 cells/well), and incubated for 16 hours at 37° C. in an atmosphere with 5% CO2. The keratinocytes are then rinsed with PBS in order to remove the non-adherent cells and then exposed to the products to be tested included in non-supplemented KSFM (which might interfere in the assay).
(§2) The tested culture concentration is 3 μg/mL. It was retained after a preliminary test for evaluating cytotoxicity (neutral red) and it is not cytotoxic.
For each treatment, 3 wells are produced. The cells are pre-incubated for 60 min with the products to be tested and then stimulated, in parallel with negative controls without any stimulant: Phorbol Myristate Acetate (PMA) 1 μM+calcium Ionophore (A23187) 0.1 μM.
Incubation for 6 hours at 37° C. in a humid air atmosphere containing 5% of CO2.
The culture media of each of the wells are recovered, centrifuged at 3,000 rpm and stored at −80° C.
Assay of the cytokines: IL8 is assayed by an immunoenzymatic method with an ELISA kit (Immunotech).
The results are gathered in Table 2 and are expressed in percentage of activity/stimulated control.

production of PG6KF1α = experiment: Production of prostaglandin 6KF1α by keratinocytes stimulated with calcium ionophore A23187 (ELISA); format: cell-based; conditions: for inhibition at 3 µg/mL: Keratinocyte, read-out: Inhibitory activity % of molecules evaluated on the production of PG6KF1α; for effective dose 45 (DE45), production of PG6KF1α: keratinocytes stimulated with A23187; for anti-inflammatory potentialities (PG6KF1α production), in words: summary of Table 1 data
Protocol: The prostaglandin PG6KF1 alpha, is one of the major metabolites produced by the stimulated keratinocyte, and representative of the modulation of the production of metabolites of the metabolism of arachidonic acid stemming from the cyclo-oxygenase route.
as §1, with “DMEM with 10% FCS” for “supplemented KSFM”, “in” for “into”, “6” for “96”, “(1.2 106” for “(3.10^4”, “eliminate” for “remove the”, “DMEM without FCS” for “non-supplemented KSFM”
as §2
For each treatment, 3 wells were produced. The cells were pre-incubated for 60 min with the products to be tested and then an agent stimulating the cascade of arachidonic acid, the calcium ionophore, is added for 5 hours: the calcium ionophore A23187 is used at a concentration of 1 μM.
After these 5 hours of culture, the culture media of each of the wells are recovered, centrifuged at 3,000 rpm and stored at −80° C.
The production of prostaglandin 6KF1α for each of the tests is measured with the Elisa kit EUROMEDEX.
The results are gathered in Table 1 and are expressed in percentage of activity/stimulated control.

B16-F10 line = experiment: Synthesis of melanin, colorimetric assay, basal and after alpha MSH stimulation; format: cell-based, murine; conditions: B16-F10; for inhibition at 30 µg/mL: Mus musculus, 30 μg/mL
Protocol: 6.1) The modulating effect of unsaturated fatty amino-acid derivatives on melanogenesis was analyzed. For this, a measurement of the synthesis of melanin by a colorimetric assay is carried out on a cell line of murine melanomas: the B16-F10 line.
The effect of the products is investigated in a basal situation and after stimulating melanogenesis by a MSH for determining the depigmenting power.
The level of extracellular and intracellular melanin is then measured by spectrophotometry at a wave length of 405 nm according to the procedure (Meun, Y. J. et al.). The amount of pigment is determined by a standard range of melanin and by analysis on the Microwin software package (Berthold Biotechnologies). An assay of total proteins is conducted for samples of intracellular melanin by the BCA-Copper method at 540 nm. The standard range is produced with a standard protein, BSA (Bovine Albumin Serum).

production of IL8 [2] = experiment: Production of interleukin 8 induced in keratinocytes by PMA and calcium ionophore A23187 (ELISA); format: cell-based; conditions: Keratinocyte; keratinocytes stimulated with PMA + A23187; read-out: effective dose 50 (DE50), production of IL8
[3] = 3 μg/mL, keratinocytes, 60 min pre-incubation, calcium ionophore A23187 1 μM for 5 hours, percentage of activity/stimulated control

| Compound | Inhibitory activity % of molecules evaluated on the production of IL8 (production of IL8 [1]) | inhibition at 3 µg/mL (production of PG6KF1α; [3]) | inhibition at 3 µg/mL (production of IL8 [1]) | anti-inflammatory potentialities (PG6KF1α production), in words (production of PG6KF1α) | melting point | other results |
| --- | --- | --- | --- | --- | --- | --- |
| Cl.NCCC/C=C/C(=O)O [Compound No. 1, (E)-6-amino-hex-2-enoic acid] | ~ | < 0% |  |  |  |  |
| NCCC/C=C(/F)C(=O)O [Compound No. 2, (E)-6-amino-2-fluoro-hex-2-enoic acid] | ~ |  |  |  |  | Inhibitory activity % of molecules evaluated on the production of PG6KF1α (production of PG6KF1α; [3]): ~ |
| Cl.NCCCC/C=C/C(=O)O [Compound No. 4, (E)-7-amino-hept-2-enoic acid] | ~ | 18% |  |  |  |  |
| NCCCCC=C(F)C(=O)O [Compound No. 5, (Z+E)-7-amino-2-fluoro-hept-2-enoic acid] |  | 41% | < 0% | anti-inflammatory potentialities |  | pigmenting effect, in words (B16-F10 line): weaker than that of molecule No. 6; effective dose 45 (DE45), production of PG6KF1α (production of PG6KF1α): 25 µg/mL |
| Cl.NCCCCC/C=C/C(=O)O [Compound No. 7, (E)-8-amino-oct-2-enoic acid] | ~ | 36% |  | anti-inflammatory potentialities |  |  |
| Cl.NCCCCCC/C=C/C(=O)O [Compound No. 8, (E)-9-amino-non-2-enoic acid] |  | 8% | 14% |  | 104 °C |  |
| Cl.NCCCCCCC=C(F)C(=O)O [Compound No. 9, 9-amino-2-fluoro-non-2-enoic acid] |  | 17% | 20% |  | 120 °C | anti-inflammatory potentialities (IL8 production), in words (production of IL8 [1]): anti-inflammatory potentialities |
| Cl.NCCCCCCCCCCCC=C(F)C(=O)O [Compound No. 10, 14-amino-2-fluoro-tetradec-2-enoic acid] |  | 38% | 8% | anti-inflammatory potentialities | 148.5 °C |  |
| Cl.NCCCCCCCCCCC/C=C/C(=O)O [Compound No. 11, (E)-14-amino-tetradec-2-enoic acid] |  | 40% | 22% | anti-inflammatory potentialities | 153 °C | EC50 (production of IL8 [2]): 11 µg/mL; anti-inflammatory potentialities (IL8 production), in words (production of IL8 [1]): anti-inflammatory potentialities; effect on the synthesis of melanin, in words (B16-F10 line; 10 μg/mL): without any effect; inhibition at 30 µg/mL (B16-F10 line; read-out: inhibition of the amount of extra-cellular melanin): 30%; inhibition at 30 µg/mL (B16-F10 line; read-out: inhibition of the amount of intra-cellular melanin): ~45%; effective dose 45 (DE45), production of PG6KF1α (production of PG6KF1α): 10 µg/mL |
| NCCC/C=C(\F)C(=O)O [compound 3, (Z)-6-amino-2-fluoro-hex-2-enoic acid] | ~ | 22% |  |  |  |  |
| NCCCC/C=C(\F)C(=O)O [compound 6, (Z)-7-amino-2-fluoro-hept-2-enoic acid] |  | 25% | < 0% |  |  | increase of the amount of intracellular melanin (B16-F10 line; 3, 10 and 30 μg/mL): about 100% |

— patent US20100240754A1, “UNSATURATED FATTY AMINO ACID DERIVATIVES AND USE THEREOF IN DERMAL COSMETOLOGY” (Pierre Fabre Demo-Cosmetique, priority 2007, published 2010)
